Laboratory results published in US9271969B2, “Compounds as inhibitors of diacylglycerol O-acyltransferase type 1 enzyme” (KAINOS MEDICINE, INC., priority 2012, dated 2016).

What was measured:
[1] = target: mouse DGAT1 (Mus musculus (Mouse), UniProt Q9Z2A7); experiment: Radiometric DGAT1 assay, mouse liver microsomes; format: biochemical; details: mouse liver microsomes having mouse DGAT1 activity
Text: A second source of DGAT1 activity was human or mouse liver microsomes.

[2] = target: human DGAT1 (Homo sapiens (Human), UniProt O75907); experiment: biochemical
Chain of human DGAT1 (O75907 whole entry): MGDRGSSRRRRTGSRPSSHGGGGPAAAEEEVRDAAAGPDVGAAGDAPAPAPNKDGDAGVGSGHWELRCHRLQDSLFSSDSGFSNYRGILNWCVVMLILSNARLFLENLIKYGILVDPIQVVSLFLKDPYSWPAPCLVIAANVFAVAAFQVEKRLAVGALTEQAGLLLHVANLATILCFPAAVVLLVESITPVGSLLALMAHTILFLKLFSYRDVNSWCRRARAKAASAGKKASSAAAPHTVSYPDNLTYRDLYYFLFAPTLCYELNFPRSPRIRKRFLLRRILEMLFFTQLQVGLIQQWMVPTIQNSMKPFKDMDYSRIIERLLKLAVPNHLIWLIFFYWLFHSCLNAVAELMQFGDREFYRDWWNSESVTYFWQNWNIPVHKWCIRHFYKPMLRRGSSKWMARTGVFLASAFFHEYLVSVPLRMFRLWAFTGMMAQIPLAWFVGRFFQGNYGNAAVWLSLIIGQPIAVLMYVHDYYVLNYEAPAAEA
Experimental: For this assay, a source of DGAT1 was needed. In that regard, a commercially available plasmid for expression of DGAT1 (e.g., pCMV6-recombinant human DGAT1 plasmid) was transfected for 24 hours in Hep3B cells. After transfection of the plasmid, human DGAT-1 expression was analyzed by Western blot or RT-PCR using whole cell extracts. […] Human and mouse DGAT activity were determined as follows.
The plates were sealed, incubated overnight and counted the next morning on a liquid scintillation counter and luminometer.
DGAT1 catalyzes the transfer of the radiolabelled decanoyl group onto the sn-3 position of didecanoyl glycerol. The resultant radiolabeled tridecanoyl glycerol (tricaprin) preferentially binds to the hydrophobic coating on the phospholipid-coated radiometric assay plate. The proximity of the radiolabeled product to the solid scintillant incorporated into the bottom of the radiometric assay plate induced for release from the scintillant, which was measured in the liquid scintillation counter and luminometer.
IC50 values of the compounds were determined from concentration-dependent inhibition curves by using commercially available software.

Chain of mouse DGAT1 (Q9Z2A7 whole entry): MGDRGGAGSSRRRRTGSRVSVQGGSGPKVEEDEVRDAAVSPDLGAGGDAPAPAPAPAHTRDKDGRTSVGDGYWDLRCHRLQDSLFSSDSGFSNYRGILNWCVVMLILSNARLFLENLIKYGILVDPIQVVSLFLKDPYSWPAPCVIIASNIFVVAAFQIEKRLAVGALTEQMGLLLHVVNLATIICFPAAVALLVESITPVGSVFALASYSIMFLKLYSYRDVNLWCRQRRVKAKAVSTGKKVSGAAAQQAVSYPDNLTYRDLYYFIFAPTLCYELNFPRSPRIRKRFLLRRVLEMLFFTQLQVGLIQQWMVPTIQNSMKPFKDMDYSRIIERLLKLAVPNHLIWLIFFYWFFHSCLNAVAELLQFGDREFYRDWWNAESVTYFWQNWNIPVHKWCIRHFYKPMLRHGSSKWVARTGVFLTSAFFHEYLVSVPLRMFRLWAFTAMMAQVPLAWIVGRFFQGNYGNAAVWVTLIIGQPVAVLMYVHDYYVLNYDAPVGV

| SMILES | IC50 [1] [µM] | IC50 [2] [µM] |
| --- | --- | --- |
| COc1ccc(CNC(=O)c2cn3cc(-c4ccc([C@H]5CC[C@H](CC(=O)O)CC5)cc4)ccc3n2)cc1 [Compound 12, 2-((1r,4r)-4-(4-(2-((4-Methoxybenzyl)carbamoyl)imidazo[1,2-a]pyridin-6-yl)-phenyl)cyclohexyl)acetic acid] | < 0.15 | < 0.025 |
| O=C(O)C[C@H]1CC[C@H](c2ccc(-c3ccc4nc(C(=O)Nc5ccc(F)cc5C(F)(F)F)cn4c3)cc2)CC1 [Compound 33, 2-((1r,4r)-4-(4-(2-((4-Fluoro-2-(trifluoromethyl)phenyl)carbamoyl)imidazo[1,2-a]pyridin-6-yl)phenyl)cyclohexyl)acetic acid] | < 0.75 | < 0.25 |
| O=C(O)C[C@H]1CC[C@H](c2ccc(-c3ccc4nc(C(=O)Nc5ccccc5C(F)(F)F)cn4c3)cc2)CC1 [Compound 34, 2-((1r,4r)-4-(4-(2-((2-(Trifluoromethyl)phenyl)carbamoyl)imidazo[1,2-a]pyridin-6-yl)phenyl)cyclohexyl)acetic acid] | < 0.45 | < 0.15 |
| O=C(O)C[C@H]1CC[C@H](c2ccc(-c3ccc4nc(C(=O)Nc5ccccc5F)cn4c3)cc2)CC1 [Compound 35, 2-((1r,4r)-4-(4-(2-((2-Fluorophenyl)carbamoyl)imidazo[1,2-a]pyridin-6-yl)phenyl)cyclohexyl)acetic acid] | < 0.55 | < 0.2 |
| COc1ccccc1NC(=O)c1cn2cc(-c3ccc([C@H]4CC[C@H](CC(=O)O)CC4)cc3)ccc2n1 [Compound 36, 2-((1r,4r)-4-(4-(2-((2-Methoxyphenyl)carbamoyl)imidazo[1,2-a]pyridin-6-yl)phenyl)cyclohexyl)acetic acid] | < 0.075 | < 0.1 |
| COc1ccc(CNC(=O)c2cn3cc(-c4ccc([C@H]5CC[C@H](CC(=O)O)CC5)cc4)sc3n2)cc1 [Compound 57, 2-((1r,4r)-4-(4-(6-((4-Methoxybenzyl)carbamoyl)imidazo[2,1-b]thiazol-2-yl)phenyl)cyclo-hexyl)acetic acid] | < 0.15 | < 0.01 |
| O=C(O)C[C@H]1CC[C@H](c2ccc(-c3cn4cc(C(=O)NCc5ccc6c(c5)OCO6)nc4s3)cc2)CC1 [Compound 58, 2-((1r,4r)-4-(4-(6-((Benzo[d][1,3]dioxol-5-ylmethyl)carbamoyl)imidazo[2,1-b]thiazol-2-yl)-phenyl)cyclohexyl)acetic acid] | < 0.325 | < 0.1 |

Continued, values first:

| IC50 [1] [µM] | IC50 [2] [µM] | SMILES |
| --- | --- | --- |
| < 0.075 | < 0.05 | O=C(O)C[C@H]1CC[C@H](c2ccc(-c3ccc4nc(C(=O)NCc5ccc(C(F)(F)F)c(F)c5)cn4c3)cc2)CC1 [Compound 11, 2-((1r,4r)-4-(4-(2-((3-Fluoro-4-(trifluoromethyl)benzyl)carbamoyl)imidazo[1,2-a]pyridin-6-yl)phenyl)cyclohexyl)acetic acid] |
| < 0.001 | < 0.01 | COc1ccc(OC(F)(F)F)cc1CNC(=O)c1cn2cc(-c3ccc([C@H]4CC[C@H](CC(=O)O)CC4)cc3)ccc2n1 [Compound 18, 2-((1r,4r)-4-(4-(2-((2-Methoxy-5-(trifluoromethoxy)benzyl)carbamoyl)imidazo[1,2-a]-pyridin-6-yl)phenyl)cyclohexyl)acetic acid] |
| < 0.001 | < 0.01 | CC(C)c1ccc(CNC(=O)c2cn3cc(-c4ccc([C@H]5CC[C@H](CC(=O)O)CC5)cc4)ccc3n2)cc1 [Compound 19] |
| < 0.001 | < 0.001 | Cc1ccccc1NC(=O)c1cn2cc(-c3ccc([C@H]4CC[C@H](CC(=O)O)CC4)cc3)ccc2n1 [Compound 32, 2-((1r,4r)-4-(4-(2-(o-Tolylcarbamoyl)imidazo[1,2-a]pyridin-6-yl)phenyl)cyclohexyl)acetic acid] |
| < 0.05 | < 0.01 | Cc1ccccc1CNC(=O)c1cn2cc(-c3ccc([C@H]4CC[C@H](CC(=O)O)CC4)cc3)ccc2n1 [Compound 37, 2-((1r,4r)-4-(4-(2-((2-Methylbenzyl)carbamoyl)imidazo[1,2-a]pyridin-6-yl)phenyl)cyclohexyl)acetic acid] |
| < 0.001 | < 0.2 | Cc1cccc(C)c1NC(=O)c1cn2cc(-c3ccc([C@H]4CC[C@H](CC(=O)O)CC4)cc3)ccc2n1 [Compound 38, 2-((1r,4r)-4-(4-(2-((2,6-Dimethylphenyl)carbamoyl)imidazo[1,2-a]pyridin-6-yl)phenyl)cyclohexyl)acetic acid] |
| < 0.001 | < 0.01 | O=C(O)C[C@H]1CC[C@H](c2ccc(-c3ccc4nc(C(=O)Nc5cc(F)ccc5F)cn4c3)cc2)CC1 [Compound 39, 2-((1r,4r)-4-(4-(2-((2,5-Difluorophenyl)carbamoyl)imidazo[1,2-a]pyridin-6-yl)phenyl)cyclohexyl)acetic acid] |
| < 0.05 | < 0.001 | O=C(O)C[C@H]1CC[C@H](c2ccc(-c3ccc4nc(C(=O)Nc5cc(F)c(F)c(F)c5)cn4c3)cc2)CC1 [Compound 40, 2-((1r,4r)-4-(4-(2-((3,4,5-Trifluorophenyl)carbamoyl)imidazo[1,2-a]pyridin-6-yl)phenyl)cyclohexyl)acetic acid] |
| < 0.025 | < 0.025 | O=C(O)C[C@H]1CC[C@H](c2ccc(-c3cn4cc(C(=O)NCc5ccc(F)c(OC(F)(F)F)c5)nc4s3)cc2)CC1 [Compound 59, 2-((1r,4r)-4-(4-(6-((4-Fluoro-3-(trifluoromethoxy)benzyl)carbamoyl)imidazo[2,1-b]thiazol-2-yl)phenyl)cyclohexyl)acetic acid] |
